Laboratory results as given in patent US5567694A, “17-Aryl and 17-heterocyclyl-5β,14β-androstane derivatives active on the cardiovascular system, processes for their preparation and pharmaceutical compositions containing same” (SIGMA-TAU Industrie Farmaceutiche Riunite S.p.A., priority 1992, dated 1996).

Key:
Na^+,K^+ -ATPase [1] = format: binding; conditions: ^3 H-ouabain displacement, purified Na^+,K^+ -ATPase receptor
From the text: (§1) To test the affinity for the receptor site of the Na^+,K^+ -ATPase and the inhibitory activity on the enzyme, the following tests were used:
a) displacement of the specific ^3 H-ouabain binding from the Na^+,K^+ -ATPase receptor purified according to Jorghensen (Jorghensen P., BBA, 1974, 356, 36) and Erdmann ( Erdmann E. et al., Arzneim. Forsh., 1984, 34, 13 14);

Na^+,K^+ -ATPase [2] = format: biochemical; parameters: unit not given here; conditions: hydrolysis of ^32 P-ATP, purified Na^+,K^+ -ATPase
From the text: as §1
b) inhibition of the activity of the purified Na^+,K^+ -ATPase measured as % of hydrolysis of ^32 P-ATP in presence and in absence of the tested compound (Doucet A. et al., Am.

[3] = system: spontaneous hypertensive rats of the Milan (MHS); experiment: systolic blood pressure and heart rate in spontaneous hypertensive rats (MHS), indirect tail-cuff; format: in vivo, rat; conditions: for SBP (systolic blood pressure) / HR (heart rate): MHS rats, n = 7, 20 mg/Kg/os daily for ten days in METHOCEL 0.5% w/v; for SBP (systolic blood pressure): controls 172 +/- 2.0; for HR (heart rate): controls 328 +/- 8.6
Procedure: The ability of these compounds to lower blood pressure was tested by using animal models with genetic arterial hypertension, in particular, spontaneous hypertensive rats of the Milan (MHS) (Bianchi G., Ferrari P., Barber B., The Milan Hypertensive strain. In Handbook of hypertension. Vol.4: Experimental and genetic models of hypertension. Ed. W. de jong-Elsevier Science Publishers B.V.,1984: 328-349).
The procedure adopted to test the antihypertensive activity of the compounds on the above mentioned model was the following:
systolic blood pressure (SBP) and heart rate (HR) were measured by an indirect tail-cuff method in three-month old hypertensive rats (MHS) before beginning the treatment (basal values). The rats were then subdivided in two groups of at least 7 animals each, one receiving the compound the other, the control group, receiving only the vehicle. The compound, suspended in METHOCEL 0.5% (w/v), was administered daily by mouth, for ten days. SBP and HR were measured daily 6 and 24 hours after the treatment. At the end of the ten day treatment period, a washout period of at least two days was carried out, in order to check for how long the SBP was mantained low or the basal values were re-established.

Row | Compound | Binding ^3 H-Ouab. Displacement log IC50 (Na^+,K^+ -ATPase [1]) | Inhibitory Activity log IC50 (Na^+,K^+ -ATPase [2]) | SBP (systolic blood pressure) [3] | HR (heart rate) [3] | antihypertensive action ([3]; statement in words)
1 | C[C@]12CC[C@H](OCCN3CCCC3)C[C@H]1CC[C@@H]1[C@@H]2CC[C@]2(C)[C@@](OCCN3CCCC3)(c3ccccc3)CC[C@]12O [Comp. I-ai, 3β,17α-Bis(2-(1-pyrrolidinyl)ethoxy)-17β-phenyl-5β-androstan-14β-ol] | 5.0 |  |  |  | 
2 | C[C@]12CC[C@H](O)C[C@H]1CC[C@@H]1[C@@H]2CC[C@]2(C)[C@@](O)(C3=CC(=O)OC3)CC[C@]12O [Ref. comp., 3β,14β,17α-trihydroxy-5β-card-20(22)-enolide, reference compound] | 5.9 | 5.3 | 174 +/- 2.1 mm Hg | 340 +/- 10.2 beats/min. | do not show antihypertensive action
3 | C[C@]12CC[C@H](OCC(O)CO)C[C@H]1CC[C@@H]1[C@@H]2CC[C@]2(C)[C@@](O)(c3ccccc3)CC[C@]12O (stereo partly drawn) [Comp. I-ao, 3β-((2RS)-2,3-Dihydroxypropoxy)-17β-phenyl-5β-androstane-14β,17α-diol] | 5.5 | 4.2 |  |  | 
4 | C[C@]12CC[C@H](OCCCN)C[C@H]1CC[C@@H]1[C@@H]2CC[C@]2(C)[C@@](O)(c3ccccc3)CC[C@]12O [Comp. I-ag, 3β-(3-Aminopropoxy)-17β-phenyl-5β-androstane-14β,17α-diol] | 5.9 | 4.6 | 157 +/- 4.2 mm Hg | 330 +/- 9.8 beats/min. | 
5 | COc1ccc([C@@]2(O)CC[C@]3(O)[C@@H]4CC[C@@H]5C[C@@H](O)CC[C@]5(C)[C@H]4CC[C@]23C)cc1 [Comp. I-au, 17β-(4-Methoxyphenyl)-5β-androstane-3β,14β,17α-triol] | 5.6 | 4.5 | 156 +/- 4.1 mm Hg | 335 +/- 10.5 beats/min. | 
6 | CN(C)CCCO[C@H]1CC[C@@]2(C)[C@H](CC[C@@H]3[C@@H]2CC[C@]2(C)[C@@](O)(c4ccccc4)CC[C@]32O)C1 [Comp. I-ae, 3β-(3-Dimethylaminopropoxy)-17β-phenyl-5β-androstane-14β,17α-diol] | 5.9 | 4.7 |  |  | 
7 | C[C@]12CC[C@H](SCCCN)C[C@H]1CC[C@@H]1[C@@H]2CC[C@]2(C)[C@@](O)(c3ccccc3)CC[C@]12O [Comp. I-bj] | 5.7 | 4.6 |  |  | 
8 | Cc1ncc([C@@]2(O)CC[C@]3(O)[C@@H]4CC[C@@H]5C[C@@H](O)CC[C@]5(C)[C@H]4CC[C@]23C)n1C [Comp. I-be, 17β-(1,2-Dimethyl-5-imidazolyl)-5β-androstane-3β,14β,17α-triol] | 5.4 |  |  |  | 
9 | CCN(CC)CCO[C@H]1CC[C@@]2(C)[C@H](CC[C@@H]3[C@@H]2CC[C@]2(C)[C@@](O)(c4ccc(OC)cc4)CC[C@]32O)C1 [Comp. I-av, 3β-(2-Diethylaminoethory)-17β-(4-methoxyphenyl)-5β-androstane-14β,17α-diol] | 6.0 | 4.8 |  |  | 
10 | C[C@]12CC[C@H](O)C[C@H]1CC[C@@H]1[C@@H]2CC[C@]2(C)[C@@](O)(c3ccc(O)cc3)CC[C@]12O [Comp. I-ay, 17β-(4-Hydroxyphenyl)-5β-androstane-3β,14β,17α-triol] | 5.6 | 4.5 |  |  | 
11 | C[C@]12CC[C@H](O)C[C@H]1CC[C@@H]1[C@@H]2CC[C@]2(C)[C@@](O)(c3ccccc3)CC[C@]12O [Comp. I-ac, 17β-Phenyl-5β-androstane-3β,14β,17α-triol] | 5.4 | 4.1 | 160 +/- 4.5 mm Hg | 331 +/- 8.5 beats/min. | 
12 | CN(C)c1ccc([C@@]2(O)CC[C@]3(O)[C@@H]4CC[C@@H]5C[C@@H](O)CC[C@]5(C)[C@H]4CC[C@]23C)cc1 [Comp. I-bf, 17β-(4-(N,N-Dimethylaminophenyl))-5β-androstane-3β,14β,17α-triol] | 5.7 | 4.6 |  |  | 
13 | C[C@]12CC[C@H](O)C[C@H]1CC[C@@H]1[C@@H]2CC[C@]2(C)[C@@](O)(c3cccnc3)CC[C@]12O [Comp. 1-bb, 17β-(3-Pyridyl)-5β-androstane-3β,14β,17α-triol] | 5.4 | 4.3 | 154 +/- 3.0 mm Hg | 339 +/- 6.8 beats/min. | 
14 | C[C@]12CCC(=NNC(=N)N)C[C@H]1CC[C@@H]1[C@@H]2CC[C@]2(C)[C@@](O)(c3ccccc3)CC[C@]12O [Comp. I-ar, 3-Guanidinoimino-17β-phenyl-5β-androstane-14β,17α-diol] | 5.8 | 4.6 |  |  | 
15 | C[C@]12CC[C@H](OCC(N)CN)C[C@H]1CC[C@@H]1[C@@H]2CC[C@]2(C)[C@@](O)(c3ccccc3)CC[C@]12O (stereo partly drawn) [Comp. I-ap, 3β-((2RS)-2,3-Diaminopropoxy)-17β-phenyl-5β-androstane-14β,17α-diol] | 5.8 | 4.6 |  |  | 
16 | C[C@]12CC[C@H](OCCO)C[C@H]1CC[C@@H]1[C@@H]2CC[C@]2(C)[C@@](O)(c3ccccc3)CC[C@]12O [Comp. I-ad, 3β-(2-Hydroxyethoxy)-17β-phenyl-5β-androstane-14β,17α-diol] | 5.2 | 4.0 |  |  | 
17 | C[C@]12CC[C@H](O)C[C@H]1CC[C@@H]1[C@@H]2CC[C@]2(C)[C@@](O)(c3ccsc3)CC[C@]12O [Comp. 1-ba, 17β-(3-Thienyl)-5β-androstane-3β,14β,17α-triol] | 5.7 | 4.5 |  |  | 
18 | CNCCO[C@H]1CC[C@@]2(C)[C@H](CC[C@@H]3[C@@H]2CC[C@]2(C)[C@@](O)(c4ccccc4)CC[C@]32O)C1 [Comp. I-am, 3β-(2-Methylaminoethoxy)-17β-phenyl-5β-androstane-14β,17α-diol] | 5.9 | 4.8 |  |  | 
